The text below walks through data of patent US9115127B2 (AMGEN INC., priority 2010, dated 2015).

For this experiment, the target named is T1, wild-type human ALK (cytoplasmic domain, amino acids 1058-1620, N-terminal GST fusion) (Homo sapiens, UniProt Q9UM73).
T1 construct: The cytoplasmic domain (amino acids 1058-1620) of wild-type human ALK; GST (N); made in house; host or cells: SF9 insect cells
T1 sequence (Q9UM73 1058-1620): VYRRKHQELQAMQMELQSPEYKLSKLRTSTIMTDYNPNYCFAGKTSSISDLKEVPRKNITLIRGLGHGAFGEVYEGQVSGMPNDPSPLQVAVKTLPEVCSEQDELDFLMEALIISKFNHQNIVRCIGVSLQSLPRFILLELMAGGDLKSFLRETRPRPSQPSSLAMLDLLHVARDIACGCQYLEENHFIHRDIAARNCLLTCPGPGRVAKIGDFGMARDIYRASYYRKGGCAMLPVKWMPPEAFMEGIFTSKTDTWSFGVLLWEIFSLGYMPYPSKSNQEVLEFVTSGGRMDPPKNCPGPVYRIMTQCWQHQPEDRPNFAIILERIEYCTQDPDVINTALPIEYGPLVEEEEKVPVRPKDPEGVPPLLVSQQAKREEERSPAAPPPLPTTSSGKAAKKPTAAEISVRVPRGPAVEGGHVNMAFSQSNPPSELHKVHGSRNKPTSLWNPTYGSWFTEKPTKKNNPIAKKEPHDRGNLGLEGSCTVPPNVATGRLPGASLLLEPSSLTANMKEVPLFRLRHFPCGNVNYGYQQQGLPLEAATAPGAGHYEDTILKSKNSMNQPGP
Description: ALK Inhibition in Enzyme Assay (Lance TR-FRET kinase assay). The experiment is classed as biochemical. The procedure, abridged: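 Purified enzyme phosphorylated a biotinylated peptide substrate for 90 minutes at room temperature. Reactions were stopped with 20 mM EDTA in 50 mM Tris (pH 7.5), 100 mM NaCl, 0.05% BSA, 0.1% Tween-20. Phosphopeptide was detected by TR-FRET with SA-APC and Eu-W1024 anti-phosphotyrosine antibody PT66, excitation 320 nm.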
For orientation: Time-resolved FRET reads energy transfer from a long-lived donor to a nearby acceptor.
One may read the IC50 as the concentration that inhibits the measured activity by half. Lower therefore signals inhibition by little substance. In turn, `COc1cc2c(cn1)[nH]/c(=N\C(=O)c1ccc(F)cc1)n2[C@H]1CC[C@@H](C(=O)NC(C)C)CC1` [Example 157, (E)-4-Fluoro-N-(1-(cis-4-(isopropylcarbamoyl)cyclohexyl)-6-methoxy-1H-imidazo[4,5-c]pyridin-2(3H)-ylidene)benzamide] came in with an IC50 of under 50 nM.
Compound `Cc1n[nH]c([C@H]2CC[C@@H](n3/c(=N/C(=O)c4cccc(F)c4)[nH]c4ccc(CO)cc43)CC2)n1` [Example 73, (E)-3-Fluoro-N-(6-(hydroxymethyl)-1-(cis-4-(3-methyl-1H-1,2,4-triazol-5-yl)cyclohexyl)-1H-benzo[d]imidazol-2(3H)-ylidene)benzamide] displayed an IC50 of 100 to 1000 nM.
For `CC(C)NC(=O)[C@H]1CC[C@@H](n2/c(=N/C(=O)c3ccc(C#N)cc3)[nH]c3cnc(OCCO)cc32)CC1` [Example 126, (E)-4-Cyano-N-(6-(2-hydroxyethoxy)-1-(cis-4-(isopropylcarbamoyl)cyclohexyl)-1H-imidazo[4,5-c]pyridin-2(3H)-ylidene)benzamide], the 50% inhibitory concentration (IC50) was under 50 nM.
As for `CC(C)(O)C1CCN(CCOc2cc3c(cn2)[nH]/c(=N\C(=O)c2cccc(F)c2)n3[C@H]2CC[C@@H](C(=O)N3CC(F)(F)C3)CC2)CC1` [Example 80, (E)-N-(1-(cis-4-(3,3-Difluoroazetidine-1-carbonyl)cyclohexyl)-6-(2-(4-(2-hydroxypropan-2-yl)piperidin-1-yl)ethoxy)-1H-imidazo[4,5-c]pyridin-2(3H)-ylidene)-3-fluorobenzamide], the IC50 was under 50 nM.
`COC(=O)[C@H]1CC[C@@H](n2/c(=N/C(=O)c3ccc(F)cc3)[nH]c3ccc(CN4CCOCC4)cc32)CC1` [Example 85, cis-Methyl 4-((E)-2-(4-fluorobenzoylimino)-6-(morpholinomethyl)-2,3-dihydro-1H-benzo[d]imidazol-1-yl)cyclohexanecarboxylate] yielded an IC50 of under 50 nM.
On to `CC(C)(O)C1CCN(Cc2ccc3[nH]/c(=N\C(=O)c4ccc(F)cc4)n([C@H]4CC[C@@H](C(N)=O)CC4)c3c2)CC1` [Example 212, (E)-N-(1-(cis-4-Carbamoylcyclohexyl)-6-((4-(2-hydroxypropan-2-yl)piperidin-1-yl)methyl)-1H-benzo[d]imidazol-2(3H)-ylidene)-4-fluorobenzamide], for which the IC50 was under 50 nM.
Take `CC(C)NC(=O)[C@H]1CC[C@@H](n2/c(=N/C(=O)c3ccc(F)cc3)[nH]c3ccc(CN4CCC(C(=O)N5CCOCC5)CC4)cc32)CC1` [Example 182, (E)-4-Fluoro-N-(1-(cis-4-(isopropylcarbamoyl)cyclohexyl)-6-((4-(morpholine-4-carbonyl)piperidin-1-yl)methyl)-1H-benzo[d]imidazol-2(3H)-ylidene)benzamide]: the IC50 is under 50 nM.
The compound `CC(C)NC(=O)[C@H]1CC[C@@H](n2/c(=N/C(=O)c3ccc4ccsc4c3)[nH]c3cnc(OCCN4CCCCC4)cc32)CC1` [Example 87, (E)-N-(1-(cis-4-(Isopropylcarbamoyl)cyclohexyl)-6-(2-(piperidin-1-yl)ethoxy)-1H-imidazo[4,5-c]pyridin-2(3H)-ylidene)benzo[b]thiophene-6-carboxamide] yielded an IC50 of 50 to 100 nM.
Compound `CC(C)NC(=O)[C@H]1CC[C@@H](n2/c(=N/C(=O)c3ccc(F)cc3)[nH]c3cnc(OCCCN4CCOCC4)cc32)CC1` [Example 165, (E)-4-Fluoro-N-(1-(cis-4-(isopropylcarbamoyl)cyclohexyl)-6-(3-morpholinopropoxy)-1H-imidazo[4,5-c]pyridin-2(3H)-ylidene)benzamide] gave an IC50 of under 50 nM.
Turning to `COC(=O)[C@H]1CC[C@@H](n2c(NC(=O)c3ccccc3)nc3ccc(CO)cc32)CC1` [Example 4, cis-Methyl 4-(2-benzamido-6-(hydroxymethyl)-1H-benzo[d]imidazol-1-yl)cyclohexanecarboxylate], the IC50 is under 50 nM.
Then `CC(C)NC(=O)[C@H]1CC[C@@H](n2/c(=N/C(=O)c3cc(F)cc(F)c3)[nH]c3cnc(OCCN4CCCCC4)cc32)CC1` [Example 98, (E)-3,5-Difluoro-N-(1-(cis-4-(isopropylcarbamoyl)cyclohexyl)-6-(2-(piperidin-1-yl)ethoxy)-1H-imidazo[4,5-c]pyridin-2(3H)-ylidene)benzamide], with under 50 nM; and `CNS(=O)(=O)N1CCC(n2/c(=N/C(=O)c3ccccc3)[nH]c3cnc(OCCN4CCCCC4)cc32)CC1` [Example 67, (E)-N-(1-(1-(N-Methylsulfamoyl)piperidin-4-yl)-6-(2-(piperidin-1-yl)ethoxy)-1H-imidazo[4,5-c]pyridin-2(3H)-ylidene)benzamide], with 100 to 1000 nM.
For `CC(C)C(=O)N[C@H]1CC[C@@H](n2/c(=N/C(=O)c3cccc(F)c3)[nH]c3ccc(CN4CCC(C(C)(C)O)CC4)cc32)CC1` [Example 228, (E)-3-Fluoro-N-(6-((4-(2-hydroxypropan-2-yl)piperidin-1-yl)methyl)-1-(cis-4-isobutyramidocyclohexyl)-1H-benzo[d]imidazol-2(3H)-ylidene)benzamide] the value was 100 to 1000 nM.
`CC(C)NC(=O)[C@H]1CC[C@@H](n2/c(=N/C(=O)c3ccc(F)cc3)[nH]c3ccc(N4CCS(=O)(=O)CC4)cc32)CC1` [Example 239, (E)-4-Fluoro-N-(1-(cis-4-(isopropylcarbamoyl)cyclohexyl)-6-(thiomorpholine 1,1-dioxide)-1H-benzo[d]imidazol-2(3H)-ylidene)benzamide] gave an IC50 of under 50 nM.
In the case of `CC(C)NC(=O)[C@H]1CC[C@@H](n2/c(=N/C(=O)c3ccc(F)cc3)[nH]c3cnc(NCC(C)(C)O)cc32)CC1` [Example 226, (E)-4-Fluoro-N-(6-(2-hydroxy-2-methylpropylamino)-1-(cis-4-(isopropylcarbamoyl)cyclohexyl)-1H-imidazo[4,5-c]pyridin-2(3H)-ylidene)benzamide], the IC50 was under 50 nM.
For `CC(C)CNC(=O)[C@H]1CC[C@@H](n2/c(=N/C(=O)c3ccc(F)cc3)[nH]c3ccc(CN4CCCCC4)cc32)CC1` [Example 35, (E)-4-Fluoro-N-(1-(cis-4-(isobutylcarbamoyl)cyclohexyl)-6-(piperidin-1-ylmethyl)-1H-benzo[d]imidazol-2(3H)-ylidene)benzamide], the IC50 is under 50 nM.
In turn, `CC(C)NC(=O)[C@H]1CC[C@@H](n2/c(=N/C(=O)c3ccc(F)cc3)[nH]c3ccc(F)cc32)CC1` [Example 220, (E)-4-Fluoro-N-(6-fluoro-1-(cis-4-(isopropylcarbamoyl)cyclohexyl)-1H-benzo[d]imidazol-2(3H)-ylidene)benzamide] showed an IC50 of under 50 nM.
`C[C@H]1CN(C(=O)[C@H]2CC[C@@H](n3/c(=N/C(=O)c4ccc(F)cc4)[nH]c4cnc(OCCN5CCCCC5)cc43)CC2)CCN1` [Example 61, (E)-4-Fluoro-N-(1-(cis-4-((S)-3-methylpiperazine-1-carbonyl)cyclohexyl)-6-(2-(piperidin-1-yl)ethoxy)-1H-imidazo[4,5-c]pyridin-2(3H)-ylidene)benzamide] displayed an IC50 of under 50 nM.
Then `COC(=O)[C@H]1CC[C@@H](n2c(NC(=O)c3ccc(F)cc3)nc3ccc(CN4CCCCC4)cc32)CC1` [Example 3, cis-Methyl 4-(2-(4-fluorobenzoylimino)-6-(piperidin-1-ylmethyl)-2,3-dihydro-1H-benzo[d]imidazol-1-yl)cyclohexanecarboxylate], with under 50 nM.
